{"source": "paper PMC5126668", "about": "(PeerJ, 2016)", "key": {"rat liver": {"test_system": "rat liver", "experiment": "Hepatic functional markers (ALT, AST) in rats after a single oral dose", "type": "in vivo, Sprague–Dawley rats", "conditions": "24 h after single oral dose, mg/kg: AA I 70, BAK 200, ABT 100, GA 100, combinations 200+100", "procedure": "(§1) The blood samples were taken 24 h after the administration of a single oral dose in each group. The samples were promptly centrifuged, and the biochemical parameters, including the levels of ALT, AST, BUN, Cr, and NAG, were then measured. The level of Kim-1 was measured in collected urine samples according to the kit instructions."}, "rat kidney [1]": {"test_system": "rat kidney", "experiment": "Renal functional markers (BUN, Cr, NAG) in rats after a single oral dose", "conditions": "for BUN / Cr / NAG: rats, single oral dose", "protocol": "ABT, a broad-spectrum nonspecific CYP inhibitor, was selected as a positive control inhibitor of CYP enzymes. Aristolochic acid A (AA I) was selected as the nephrotoxicity positive control in the study.\nThe samples were promptly centrifuged, and the biochemical parameters, including the levels of ALT, AST, BUN, Cr, and NAG, were then measured. The level of Kim-1 was measured in collected urine samples according to the kit instructions."}, "rat kidney [2]": {"test_system": "rat kidney", "experiment": "Kim-1 in rat urine after a single oral dose (ELISA)", "type": "in vivo, Sprague–Dawley rats", "conditions": "for KIM-1: single oral dose", "procedure": "as §1"}, "[3]": {"conditions": "rat, 24 h after single oral dose, vs vehicle control"}, "[4]": {"conditions": "individual animals (Fig. 3 data)"}}, "note": "Where “and” joins values, the source holds several entries; their conditions need not be identical. Equal values may be shown once.", "data": [{"smiles": "COc1cccc2c1cc([N+](=O)[O-])c1c(C(=O)O)cc3c(c12)OCO3", "note": "[AA I, Aristolochic acid A]", "values": [{"measurement": "ALT (IU/L)", "setting": "rat liver", "result": "41.91±3.40", "unit": "IU/L"}, {"measurement": "AST (IU/L)", "setting": "rat liver", "result": "29.08±8.01", "unit": "IU/L"}, {"measurement": "BUN level (in words)", "setting": "rat kidney [1]; [3]", "result": "significantly increased"}, {"measurement": "Cr level (in words)", "setting": "rat kidney [1]; [3]", "result": "significantly increased"}, {"measurement": "NAG level (in words)", "setting": "rat kidney [1]; [3]", "result": "significantly increased"}, {"measurement": "BUN", "setting": "rat kidney [1]; group Mean (Fig. 3 data)", "result": 6.405, "unit": "mmol/L"}, {"measurement": "Cr", "setting": "rat kidney [1]; group Mean (Fig. 3 data)", "result": 367.877, "unit": "µmol/L"}, {"measurement": "NAG", "setting": "rat kidney [1]; group Mean (Fig. 3 data)", "result": 42.409, "unit": "IU/L"}, {"measurement": "BUN", "setting": "rat kidney [1]; [4]", "result": "5.797 mmol/L and 6.023 mmol/L and 6.135 mmol/L and 7.373 mmol/L and 6.698 mmol/L"}, {"measurement": "Cr", "setting": "rat kidney [1]; [4]", "result": "298.782 µmol/L and 308.970 µmol/L and 369.706 µmol/L and 567.416 µmol/L and 294.508 µmol/L"}, {"measurement": "NAG", "setting": "rat kidney [1]; [4]", "result": "23.912 IU/L and 43.077 IU/L and 48.176 IU/L and 27.429 IU/L and 69.451 IU/L"}, {"measurement": "Kim-1 level (in words)", "setting": "rat kidney [2]; after single oral dose, vs vehicle control", "result": "significantly increased"}, {"measurement": "KIM-1", "setting": "rat kidney [2]; group Mean (Fig. 3 data)", "result": 1538.00, "unit": "pg/mL"}, {"measurement": "KIM-1", "setting": "rat kidney [2]; [4]", "result": "804.00 pg/mL and 2994.00 pg/mL and 624.00 pg/mL and 2464.00 pg/mL"}]}]}
